Assay results: ChEMBL document CHEMBL5346873, “Strategic modification of low-activity natural antimicrobial peptides confers antibacterial potential in vitro and in vivo” (Eur J Med Chem, 2023)
The source made the active and inactive calls. No cut-off for these calls is given here.

Assays:
[1] = test system: Staphylococcus aureus; assay: Bactericidal activity against Staphylococcus aureus incubated for overnight; assay type: functional
[2] = test system: Aeromonas hydrophila; assay: Antibacterial activity against Aeromonas hydrophila incubated for 16 to 20 hrs; assay type: functional; details: time 16-20 hrs
[3] = test system: Acinetobacter baumannii; assay: Bactericidal activity against Acinetobacter baumannii incubated for overnight; assay type: functional
[4] = test system: Klebsiella aerogenes; assay: Synergistic antibacterial activity against Enterobacter aerogenes in presence of meropenem by checkerboard microtiter plate assay; assay type: functional
[5] = test system: Klebsiella oxytoca; assay: Antibacterial activity against Klebsiella oxytoca incubated for 16 to 20 hrs; assay type: functional; details: time 16-20 hrs
[6] = test system: Klebsiella aerogenes; assay: Bactericidal activity against Enterobacter aerogenes incubated overnight; assay type: functional
[7] = test system: Nakaseomyces glabratus; assay: Antifungal activity against Candida glabrata incubated for 16 to 20 hrs; assay type: functional; details: time 16-20 hrs
[8] = test system: Klebsiella pneumoniae; assay: Antibacterial activity against Klebsiella pneumoniae expressing NDM-1 in presence of human serum; assay type: functional, organism-based
[9] = test system: Vibrio vulnificus; assay: Antibacterial activity against Vibrio vulnificus in presence of proteinase K; assay type: functional, organism-based
[10] = test system: Vibrio vulnificus; assay: Bactericidal activity against Vibrio vulnificus V2 incubated overnight; assay type: functional
[11] = test system: Salmonella enterica; assay: Bactericidal activity against Salmonella enterica incubated overnight; assay type: functional
[12] = test system: Streptococcus agalactiae; assay: Bactericidal activity against Streptococcus agalactiae incubated overnight; assay type: functional
[13] = test system: Streptococcus agalactiae; assay: Synergistic antibacterial activity against Streptococcus agalactiae assessed as meropenem MIC by checkerboard microtiter plate assay; assay type: functional
[14] = test system: Escherichia coli; assay: Bactericidal activity against Escherichia coli incubated overnight; assay type: functional
[15] = test system: Cell membrane; assay: Induction of membrane depolarization in Vibrio vulnificus at 100 ug/ml by DiBAC4(3) dye based fluorescence analysis; assay type: subcellular; details: dose 100.0 µg/ml
[16] = test system: Salmonella typhimurium; assay: Antibacterial activity against Salmonella typhimurium incubated for 16 to 20 hrs; assay type: functional, Salmonella enterica subsp. enterica serovar Typhimurium; details: Salmonella enterica; time 16-20 hrs
[17] = test system: Klebsiella pneumoniae; assay: Bactericidal activity against NDM Klebsiella pneumoniae incubated overnight; assay type: functional
[18] = test system: Vibrio vulnificus; assay: Antibacterial activity against Vibrio vulnificus in presence of 0.1 ug/ml pepsin; assay type: functional, organism-based
[19] = test system: Vibrio vulnificus; assay: Antibacterial activity against Vibrio vulnificus V1 incubated for 16 to 20 hrs; assay type: functional; details: time 16-20 hrs
[20] = Cytotoxicity against human HaCaT cells incubated for 24 hrs by alamar blue assay; assay type: toxicity, cell-based; details: read-out: LD50
[21] = test system: Vibrio vulnificus; assay: Antibiofilm activity against Vibrio vulnificus 204 assessed as inhibition of biofilm formation at 25 to 100 ug/ml incubated for 24 hrs by crystal violet staining based assay; assay type: functional, organism-based; details: dose 25-100 µg/ml
[22] = test system: Streptococcus agalactiae; assay: Synergistic antibacterial activity against Streptococcus agalactiae assessed as fractional inhibitory concentration in presence of doxycycline by checkerboard microtiter plate assay; assay type: functional
[23] = test system: Vibrio vulnificus; assay: Antibiofilm activity against Vibrio vulnificus V3 assessed as inhibition of biofilm formation at 50 to 100 ug/ml incubated for 24 hrs by crystal violet staining based assay; assay type: functional, organism-based; details: dose 50-100 µg/ml
[24] = test system: Klebsiella pneumoniae; assay: Synergistic antibacterial activity against Klebsiella pneumoniae expressing NDM1 assessed as fractional inhibitory concentration in presence of doxycycline by checkerboard microtiter plate assay; assay type: functional
[25] = test system: Vibrio vulnificus; assay: Antibacterial activity against Vibrio vulnificus V2 incubated for 16 to 20 hrs; assay type: functional; details: time 16-20 hrs
[26] = test system: Streptococcus agalactiae; assay: Synergistic antibacterial activity against Streptococcus agalactiae in presence of meropenem by checkerboard microtiter plate assay; assay type: functional
[27] = test system: Vibrio vulnificus; assay: Antibacterial activity against Vibrio vulnificus in presence of 1 to 10 ug/ml trypsin; assay type: functional, organism-based
[28] = test system: Escherichia coli; assay: Synergistic antibacterial activity against Escherichia coli assessed as fractional inhibitory concentration in presence of meropenem by checkerboard microtiter plate assay; assay type: functional
[29] = Cytotoxicity against human HaCaT cells incubated for 24 hrs by LDH assay; assay type: toxicity, cell-based; details: read-out: LD50
[30] = test system: Vibrio vulnificus; assay: Antibacterial activity against Vibrio vulnificus in presence of 1 to 10 ug/ml pepsin; assay type: functional, organism-based
[31] = test system: Vibrio vulnificus; assay: Antibiofilm activity against Vibrio vulnificus V2 assessed as inhibition of biofilm formation at 25 to 100 ug/ml incubated for 24 hrs by crystal violet staining based assay; assay type: functional, organism-based; details: dose 25-100 µg/ml
[32] = test system: Vibrio vulnificus; assay: Antibacterial activity against Vibrio vulnificus in presence of 0.1 ug/ml trypsin; assay type: functional, organism-based
[33] = test system: Vibrio vulnificus; assay: Synergistic antibacterial activity against Vibrio vulnificus assessed as doxycycline MIC by checkerboard microtiter plate assay; assay type: functional
[34] = test system: Pseudomonas aeruginosa; assay: Additive antibacterial activity against Pseudomonas aeruginosa assessed as fractional inhibitory concentration in presence of meropenem by checkerboard microtiter plate assay; assay type: functional
[35] = test system: Acinetobacter baumannii; assay: Synergistic antibacterial activity against Acinetobacter baumannii in presence of doxycycline by checkerboard microtiter plate assay; assay type: functional
[36] = test system: Klebsiella aerogenes; assay: Synergistic antibacterial activity against Enterobacter aerogenes assessed as fractional inhibitory concentration in presence of meropenem by checkerboard microtiter plate assay; assay type: functional
[37] = test system: Vibrio vulnificus; assay: Antibacterial activity against Vibrio vulnificus 204 assessed as LPS neutralization at 0.25 to 2 times MIC measured after 1 hr by LAL assay; assay type: functional, organism-based
[38] = test system: Aeromonas hydrophila; assay: Bactericidal activity against Aeromonas hydrophila incubated overnight; assay type: functional
[39] = test system: Vibrio vulnificus; assay: Antibacterial activity against Vibrio vulnificus 204 incubated for 16 to 20 hrs; assay type: functional; details: time 16-20 hrs
[40] = test system: Staphylococcus haemolyticus; assay: Bactericidal activity against Staphylococcus haemolyticus incubated overnight; assay type: functional
[41] = test system: Vibrio vulnificus; assay: Antibacterial activity against Vibrio vulnificus 204 in presence of human serum; assay type: functional, organism-based
[42] = test system: Vibrio vulnificus; assay: Antibacterial activity against Vibrio vulnificus in presence of pancreatin; assay type: functional, organism-based
[43] = test system: Vibrio vulnificus; assay: Antibacterial activity against Vibrio vulnificus at pH 2 to 10; assay type: functional, organism-based
[44] = test system: Vibrio vulnificus; assay: Antibiofilm activity against Vibrio vulnificus V1 assessed as inhibition of biofilm formation at 25 ug/ml incubated for 24 hrs by crystal violet staining based assay; assay type: functional, organism-based; details: dose 25.0 µg/ml
[45] = test system: Vibrio vulnificus; assay: Synergistic antibacterial activity against Vibrio vulnificus in presence of meropenem by checkerboard microtiter plate assay; assay type: functional
[46] = test system: Vibrio vulnificus; assay: Antibiofilm activity against Vibrio vulnificus V2 assessed as inhibition of biofilm formation at 50 to 100 ug/ml incubated for 24 hrs by crystal violet staining based assay; assay type: functional, organism-based; details: dose 50-100 µg/ml
[47] = test system: Candida tropicalis; assay: Fungicidal activity against Candida tropicalis incubated overnight; assay type: functional
[48] = test system: Edwardsiella tarda; assay: Bactericidal activity against Edwardsiella tarda incubated overnight; assay type: functional
[49] = test system: Pseudomonas aeruginosa; assay: Additive antibacterial activity against Pseudomonas aeruginosa in presence of meropenem by checkerboard microtiter plate assay; assay type: functional
[50] = test system: Vibrio vulnificus; assay: Synergistic antibacterial activity against Vibrio vulnificus assessed as fractional inhibitory concentration in presence of doxycycline by checkerboard microtiter plate assay; assay type: functional
[51] = test system: Acinetobacter baumannii; assay: Antibacterial activity against Acinetobacter baumannii; assay type: functional
[52] = test system: Vibrio vulnificus; assay: Antibiofilm activity against Vibrio vulnificus V2 assessed as inhibition of biofilm formation at 25 ug/ml incubated for 24 hrs by crystal violet staining based assay; assay type: functional, organism-based; details: dose 25.0 µg/ml
[53] = test system: Streptococcus agalactiae; assay: Synergistic antibacterial activity against Streptococcus agalactiae assessed as doxycycline MIC by checkerboard microtiter plate assay; assay type: functional
[54] = test system: Vibrio vulnificus; assay: Antibiofilm activity against Vibrio vulnificus V1 assessed as inhibition of biofilm formation at 25 to 100 ug/ml incubated for 24 hrs by crystal violet staining based assay; assay type: functional, organism-based; details: dose 25-100 µg/ml
[55] = test system: Edwardsiella tarda; assay: Antibacterial activity against Edwardsiella tarda incubated for 16 to 20 hrs; assay type: functional; details: time 16-20 hrs
[56] = test system: Pseudomonas aeruginosa; assay: Antibacterial activity against Pseudomonas aeruginosa incubated for 16 to 20 hrs; assay type: functional; details: time 16-20 hrs
[57] = test system: Enterococcus faecium; assay: Antibacterial activity against Enterococcus faecium incubated for 16 to 20 hrs; assay type: functional; details: time 16-20 hrs
[58] = test system: Vibrio vulnificus; assay: Synergistic antibacterial activity against Vibrio vulnificus in presence of doxycycline by checkerboard microtiter plate assay; assay type: functional
[59] = test system: Klebsiella pneumoniae; assay: Antibacterial activity against NDM Klebsiella pneumoniae incubated for 16 to 20 hrs; assay type: functional; details: time 16-20 hrs

Substance: H-FKWKSVLKGVKGFVKGYF-OH
- MBC [1]: 50 µg/mL
- MIC [2]: > 100 µg/mL
- MBC [3]: 3.12 µg/mL
- MIC [4]: 0.195 µg/mL
- MIC [5]: 25 µg/mL
- MBC [6]: 12.5 µg/mL
- MIC [7]: > 100 µg/mL
- Activity [8]: Active
- Activity [9]: Active
- MBC [10]: 12.5 µg/mL
- MBC [11]: 12.5 µg/mL
- MBC [12]: 3.12 µg/mL
- MIC [13]: 0.002 µg/mL
- MBC [14]: 6.25 µg/mL
- Activity [15]: Active
- MIC [16]: 12.5 µg/mL
- MBC [17]: 25 µg/mL
- Activity [18]: Active
- MIC [19]: 12.5 µg/mL
- CC50 at 24 h [20]: > 100 µg/mL
- Activity [21]: Active
- FIC [22]: 0.14
- Activity [23]: Active
- FIC [24]: 0.18
- MIC [25]: 12.5 µg/mL
- MIC [26]: 0.097 µg/mL
- Activity [27]: Active
- FIC [28]: 0.07
- CC50 at 24 h [29]: > 100 µg/mL
- Activity [30]: Active
- Activity [31]: Active
- Activity [32]: Active
- MIC [33]: 0.006 µg/mL
- FIC [34]: 0.75
- MIC [35]: 0.048 µg/mL
- FIC [36]: 0.14
- Activity [37]: Active
- MBC [38]: > 100 µg/mL
- MIC [39]: 6.25 µg/mL
- MBC [40]: < 1.56 µg/mL
- Activity [41]: Active
- Activity [42]: Active
- Activity [43]: Active
- Activity [44]: inactive
- MIC [45]: 0.097 µg/mL
- Activity [46]: Active
- MFC [47]: 100 µg/mL
- MBC [48]: 50 µg/mL
- MIC [49]: 6.25 µg/mL
- FIC [50]: 0.14
- MIC [51]: 3.12 µg/mL
- Activity [52]: inactive
- MIC [53]: 0.006 µg/mL
- Activity [54]: Active
- MIC [55]: 50 µg/mL
- MIC [56]: 25 µg/mL
- MIC [57]: 25 µg/mL
- MIC [58]: 0.097 µg/mL
- MIC [59]: 25 µg/mL
